# Laboratory results as given in PubChem BioAssay AID256 (DTP/NCI, 2004).
# Toxic doses and inconclusive results are not listed.
# System: CD2F1 mice, L1210 leukemia ip, survival T/C
# Assay: NCI In Vivo Anticancer Drug Screen. Data for tumor model L1210 Leukemia (intraperitoneal) in CD2F1 (CDF1) mice
# Details: higher = longer survival
# Summary of the method: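 Ratio T/C, where T is the treated-group value and C the vehicle-dosed control value, from mice implanted with a transplantable tumor.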
# [1] = endpoint: mean survival time, dose: 50.0 mg/kg/injection, schedule: Q01DX009 (ip), vehicle: saline with Tween-80
# [2] = endpoint: mean survival time, dose: 100.0 mg/kg/injection, schedule: Q01DX009 (ip), vehicle: saline with Tween-80
# [3] = endpoint: mean survival time, dose: 100.0 mg/kg/injection, schedule: Q04DX003 (ip), vehicle: saline with Tween-80
# [4] = endpoint: mean survival time, dose: 200.0 mg/kg/injection, schedule: Q04DX003 (ip), vehicle: saline with Tween-80
# [5] = endpoint: mean survival time, dose: 100.0 mg/kg/injection, schedule: Q04DX003 (ip), vehicle: saline
# [6] = endpoint: mean survival time, dose: 200.0 mg/kg/injection, schedule: Q04DX003 (ip), vehicle: saline
# [7] = endpoint: mean survival time, dose: 400.0 mg/kg/injection, schedule: Q04DX003 (ip), vehicle: saline
# [8] = endpoint: mean survival time, dose: 400.0 mg/kg/injection, schedule: Q04DX003 (ip), vehicle: saline with Tween-80
smiles,measurement,setting,value
COc1cc(OC)c(NC(=O)Nc2cc(C)on2)cc1Cl,T/C,"endpoint: mean survival time, dose: 12.5 mg/kg/injection, schedule: Q01DX009 (ip), vehicle: saline with Tween-80",98 % of control
same,T/C,"endpoint: mean survival time, dose: 25.0 mg/kg/injection, schedule: Q01DX009 (ip), vehicle: saline with Tween-80",92 % of control
same,T/C,[1],95 % of control
COc1cc(CC2c3cc(OC)c(OC)cc3CCN2C)c(Oc2cc3c(cc2OC)-c2c(OC)c(OC)c(OC)c4c2C(C3)N(C)CC4)cc1OC (stereo unspecified),T/C,[1],95 % of control
same,T/C,[2],86 % of control
CN(Cc1ccccc1)c1ccc2nc(N)nc(N)c2c1,T/C,[3],103 % of control
same,T/C,[4],110 % of control
O=[As](O)(O)c1ccccc1[As](=O)(O)O,T/C,"endpoint: mean survival time, dose: 6.25 mg/kg/injection, schedule: Q04DX003 (ip), vehicle: saline with Tween-80",101 % of control
same,T/C,"endpoint: mean survival time, dose: 12.5 mg/kg/injection, schedule: Q04DX003 (ip), vehicle: saline with Tween-80",101 % of control
same,T/C,"endpoint: mean survival time, dose: 25.0 mg/kg/injection, schedule: Q04DX003 (ip), vehicle: saline with Tween-80",100 % of control
OCC1OC(n2cnc3c2[nH]c(=S)n2ccnc32)C(O)C1O (stereo unspecified),T/C,"endpoint: mean survival time, dose: 12.5 mg/kg/injection, schedule: Q01DX005 (ip), vehicle: water",96 % of control
same,T/C,"endpoint: mean survival time, dose: 25.0 mg/kg/injection, schedule: Q01DX005 (ip), vehicle: water",101 % of control
same,T/C,"endpoint: mean survival time, dose: 50.0 mg/kg/injection, schedule: Q01DX005 (ip), vehicle: water",96 % of control
same,T/C,"endpoint: mean survival time, dose: 100.0 mg/kg/injection, schedule: Q01DX005 (ip), vehicle: water",101 % of control
same,T/C,"endpoint: mean survival time, dose: 200.0 mg/kg/injection, schedule: Q01DX005 (ip), vehicle: water",101 % of control
CC1(C)CCC(CC(=O)O)(CC(=O)O)CC1,T/C,[2],105 % of control
same,T/C,"endpoint: mean survival time, dose: 200.0 mg/kg/injection, schedule: Q01DX009 (ip), vehicle: saline with Tween-80",104 % of control
same,T/C,"endpoint: mean survival time, dose: 400.0 mg/kg/injection, schedule: Q01DX009 (ip), vehicle: saline with Tween-80",104 % of control
C=CCC(C(=O)O)(c1ccccc1)c1ccccc1,T/C,"endpoint: mean survival time, dose: 50.0 mg/kg/injection, schedule: Q01DX009 (ip), vehicle: Klucel (hydroxypropylcellulose) (HPC)",95 % of control
same,T/C,"endpoint: mean survival time, dose: 100.0 mg/kg/injection, schedule: Q01DX009 (ip), vehicle: Klucel (hydroxypropylcellulose) (HPC)",98 % of control
same,T/C,"endpoint: mean survival time, dose: 200.0 mg/kg/injection, schedule: Q01DX009 (ip), vehicle: Klucel (hydroxypropylcellulose) (HPC)",98 % of control
COc1cccc2c1C(=O)c1c(O)c3c(c(O)c1C2=O)C[C@@](O)(/C(C)=N\O)C[C@@H]3OC1CC(N)C(O)C(C)O1 (stereo partly specified),T/C,"endpoint: mean survival time, dose: 3.13 mg/kg/injection, schedule: Q01DX009 (ip), vehicle: water",108 % of control
same,T/C,"endpoint: mean survival time, dose: 6.25 mg/kg/injection, schedule: Q01DX009 (ip), vehicle: water",112 % of control
same,T/C,"endpoint: mean survival time, dose: 25.0 mg/kg/injection, schedule: Q01DX009 (ip), vehicle: water",98 % of control
CN=C(N)N=C(N)N,T/C,[5],103 % of control
same,T/C,[6],100 % of control
same,T/C,[7],95 % of control
CCOC(=O)CCC(NC(=O)c1ccc(N(C)S(=O)(=O)c2ccc(C)cc2)c(Cl)c1Cl)C(=O)OCC (stereo unspecified),T/C,[3],105 % of control
same,T/C,[4],91 % of control
same,T/C,[8],94 % of control
N=C(N)[Se],T/C,[3],95 % of control
same,T/C,[4],101 % of control
same,T/C,[8],95 % of control
CCCC[N+](=O)[O-],T/C,[5],98 % of control
same,T/C,[6],100 % of control
same,T/C,[7],102 % of control
NC(=O)c1[nH]cnc1/N=N/N(CCF)CCF,T/C,"endpoint: mean survival time, dose: 8.8 mg/kg/injection, schedule: Q01DX001 (ip), vehicle: other",121 % of control
same,T/C,"endpoint: mean survival time, dose: 30.0 mg/kg/injection, schedule: Q01DX001 (ip), vehicle: other",158 % of control
O=c1cc2c(=O)oc3cc(O)c(O)oc3c2c(O)c1O,T/C,"endpoint: mean survival time, dose: 100.0 mg/kg/injection, schedule: Q01DX001 (ip), vehicle: saline",101 % of control
same,T/C,"endpoint: mean survival time, dose: 200.0 mg/kg/injection, schedule: Q01DX001 (ip), vehicle: saline",98 % of control
same,T/C,"endpoint: mean survival time, dose: 400.0 mg/kg/injection, schedule: Q01DX001 (ip), vehicle: saline",98 % of control
Cc1cn(C2CC3OP(=O)(OCc4ccccc4)OCC3O2)c(=O)[nH]c1=O (stereo unspecified),T/C,"endpoint: median survival time, dose: 12.5 mg/kg/injection, schedule: Q01DX005 (ip), vehicle: distilled water + Tween-80",100 % of control
same,T/C,"endpoint: median survival time, dose: 25.0 mg/kg/injection, schedule: Q01DX005 (ip), vehicle: distilled water + Tween-80",101 % of control
same,T/C,"endpoint: median survival time, dose: 50.0 mg/kg/injection, schedule: Q01DX005 (ip), vehicle: distilled water + Tween-80",102 % of control
same,T/C,"endpoint: median survival time, dose: 100.0 mg/kg/injection, schedule: Q01DX005 (ip), vehicle: distilled water + Tween-80",104 % of control
same,T/C,"endpoint: median survival time, dose: 200.0 mg/kg/injection, schedule: Q01DX005 (ip), vehicle: distilled water + Tween-80",98 % of control
CCOC(=O)/N=[N+](\[O-])c1ccccc1,T/C,"endpoint: median survival time, dose: 3.12 mg/kg/injection, schedule: Q01DX009 (ip), vehicle: saline with Tween-80",109 % of control
same,T/C,"endpoint: median survival time, dose: 6.25 mg/kg/injection, schedule: Q01DX009 (ip), vehicle: saline with Tween-80",112 % of control
same,T/C,"endpoint: median survival time, dose: 12.5 mg/kg/injection, schedule: Q01DX009 (ip), vehicle: saline with Tween-80",105 % of control
CC(C)CC(Br)C(=O)NCC(=O)O (stereo unspecified),T/C,[3],95 % of control
same,T/C,[4],113 % of control
same,T/C,[8],105 % of control
Nc1nc(C=O)nc2c1ncn2C1OC(CO)C(O)C1O (stereo unspecified),T/C,"endpoint: median survival time, dose: 25.0 mg/kg/injection, schedule: Q01DX005 (ip), vehicle: water",101 % of control
same,T/C,"endpoint: median survival time, dose: 50.0 mg/kg/injection, schedule: Q01DX005 (ip), vehicle: water",117 % of control
same,T/C,"endpoint: median survival time, dose: 100.0 mg/kg/injection, schedule: Q01DX005 (ip), vehicle: water",117 % of control
CC(=O)[O][Hg][CH]1CCCCC1O (stereo unspecified),T/C,"endpoint: mean survival time, dose: 3.13 mg/kg/injection, schedule: Q01DX009 (ip), vehicle: saline + alcohol",98 % of control
same,T/C,"endpoint: mean survival time, dose: 6.25 mg/kg/injection, schedule: Q01DX009 (ip), vehicle: saline + alcohol",108 % of control
C1=CN2CCCN3C=CC=c4ccc(c2c43)=C1,T/C,"endpoint: mean survival time, dose: 7.5 mg/kg/injection, schedule: Q01DX001 (ip), vehicle: saline",101 % of control
same,T/C,"endpoint: mean survival time, dose: 7.5 mg/kg/injection, schedule: Q04DX003 (ip), vehicle: saline",97 % of control
same,T/C,"endpoint: mean survival time, dose: 15.0 mg/kg/injection, schedule: Q01DX001 (ip), vehicle: saline",95 % of control
same,T/C,"endpoint: mean survival time, dose: 15.0 mg/kg/injection, schedule: Q04DX003 (ip), vehicle: saline",105 % of control
same,T/C,"endpoint: mean survival time, dose: 30.0 mg/kg/injection, schedule: Q01DX001 (ip), vehicle: saline",95 % of control
same,T/C,"endpoint: mean survival time, dose: 30.0 mg/kg/injection, schedule: Q04DX003 (ip), vehicle: saline",97 % of control
Cn1c(=O)c2c(ncn2CCNCC(O)c2cc(C(C)(C)C)c(O)c(C(C)(C)C)c2)n(C)c1=O (stereo unspecified),T/C,"endpoint: mean survival time, dose: 12.5 mg/kg/injection, schedule: Q01DX005 (ip), vehicle: distilled water + Tween-80",100 % of control
same,T/C,"endpoint: mean survival time, dose: 25.0 mg/kg/injection, schedule: Q01DX005 (ip), vehicle: distilled water + Tween-80",100 % of control
same,T/C,"endpoint: mean survival time, dose: 50.0 mg/kg/injection, schedule: Q01DX005 (ip), vehicle: distilled water + Tween-80",106 % of control
same,T/C,"endpoint: mean survival time, dose: 100.0 mg/kg/injection, schedule: Q01DX005 (ip), vehicle: distilled water + Tween-80",109 % of control
same,T/C,"endpoint: mean survival time, dose: 200.0 mg/kg/injection, schedule: Q01DX005 (ip), vehicle: distilled water + Tween-80",101 % of control
O=C(CC(=O)C(F)(F)F)c1ccco1.O=C(CC(=O)C(F)(F)F)c1ccco1.O=C(CC(=O)C(F)(F)F)c1ccco1.[Eu],T/C,[3],94 % of control
same,T/C,[4],94 % of control
same,T/C,[8],89 % of control
C[N+](C)(C)c1ccc(Cc2ccc([N+](C)(C)C)cc2)cc1,T/C,"endpoint: mean survival time, dose: 6.3 micrograms/kg/injection, schedule: Q04DX002 (ip), vehicle: saline with Tween-80",101 % of control
same,T/C,"endpoint: mean survival time, dose: 12.5 micrograms/kg/injection, schedule: Q04DX002 (ip), vehicle: saline with Tween-80",108 % of control
same,T/C,"endpoint: mean survival time, dose: 25.0 micrograms/kg/injection, schedule: Q04DX002 (ip), vehicle: saline with Tween-80",101 % of control
O=[N+]([O-])c1ccc2c(c1)-c1ccccc1/C2=N\O,T/C,"endpoint: mean survival time, dose: 50.0 mg/kg/injection, schedule: Q01DX001 (ip), vehicle: carboxymethylcellulose (CMC)",98 % of control
same,T/C,"endpoint: mean survival time, dose: 100.0 mg/kg/injection, schedule: Q01DX001 (ip), vehicle: carboxymethylcellulose (CMC)",104 % of control
same,T/C,"endpoint: mean survival time, dose: 200.0 mg/kg/injection, schedule: Q01DX001 (ip), vehicle: carboxymethylcellulose (CMC)",111 % of control
same,T/C,"endpoint: mean survival time, dose: 400.0 mg/kg/injection, schedule: Q01DX001 (ip), vehicle: carboxymethylcellulose (CMC)",104 % of control
C(=N\Nc1nc2ccccc2s1)/c1ccncc1,T/C,"endpoint: mean survival time, dose: 100.0 mg/kg/injection, schedule: Q04DX003 (ip), vehicle: Klucel (hydroxypropylcellulose) (HPC)",90 % of control
same,T/C,"endpoint: mean survival time, dose: 200.0 mg/kg/injection, schedule: Q04DX003 (ip), vehicle: Klucel (hydroxypropylcellulose) (HPC)",92 % of control
same,T/C,"endpoint: mean survival time, dose: 400.0 mg/kg/injection, schedule: Q04DX003 (ip), vehicle: Klucel (hydroxypropylcellulose) (HPC)",90 % of control
